Experimental data: article PMC7156724, “Potent BRD4 inhibitor suppresses cancer cell-macrophage interaction” (Nature Communications, 2020)
Several values for one entry are separate records, joined by “and”; a condition that tells them apart may be missing. Equal entries are not always repeated.

What was measured:
[1] = Metabolic stability assay, mouse liver microsomes; details: in % (unit assumed)
Experimental: (§1) 7. Metabolic stability assay. The metabolic profile of NHWD-870 was determined using mouse, rat, dog, monkey, and human liver microsomes using the protocols […]
(§2) No. Compound ID Exat Mass Stock Conc.
(§3) 1) 100 mM potassium phosphate buffer, PH7.4; 2) 10mM MgCI2
(§4) 1) Intermediate solution: Dilute 5 μL of compound or control from stock solution (10 mM) with 45 uL DMSO,then mixed with 450 μL 1:1 Methanol/Water (Conc.: 10 0 […]
(§5) 2) Working solution: Dilute 50 μL from intermediate solution with 450 μL 100 mM potassium phosphate buffer (Conc.: 10 μM, 4.5%MeOH)
(§6) (3) NADPH regenerating system (final Isocitric dehydrogenase conc.= 1 unit/mL at […]
(§7) 1) β-Nicotinamide adenine dinucleotide phosphate, Vendor: sigma Cat. No. N0505
(§8) 2) Isocitric acid, Vendor: Sigma Cat. No. I1252
(§9) 3) Isocitric dehydrogenase, Vendor: sigma Cat. No. I2002
(§10) (4) Liver microsome solution preparation (final concentration o f 0.5 mg protein/mL) […]
(§11) Cold ACN including 100 ng/mL Tolbutamide and 100 ng/mL Labetalol as internal […]
(§12) 1) Add 10 μL compound or control working solution/well to all plates (T0, T5, T10, T20, T30, T60, NCF60) except matrix blank.
(§13) 2) Dispense 680 μL/well microsome solution to 96-well plate as reserv oir according to […]
(§14) plate map. Then add 80 μL/well to every plate by Apricot, incubate the mixture of microsome solution and compound at 37℃ for about 10 min.
(§15) 3) Add 10 μL 100 mM potassium phosphate buffer/well to NCF60, incubate at 37℃, […]
(§16) 4) After pre-warming, dispense 90 μL/well NADPH regenerating system to 96-well plate as reservoir according to the plate map. Then add 10 μL/well to every plate by Apricot to start reaction.
(§17) 5) Incubate at 37℃, start timer 2.
(§18) 6) Add 300 (μL/well) stop solution (cold in 4℃, including 100 ng/mL Tolbutamide and 100 ng/mL Labetalol) to terminate the reaction.
(§19) 7) The sampling plates are shaked for approx 10 min.
(§20) 8) Samples are centrifuged at 4000 rpm for 20 min under 4℃.
(§21) 9) While centrifuging, load 8×new 96-well plate with 300 μL HPLC water, then transfer 100 μL supernatant, mixed for LC/MS/MS.
(§22) Use equation of first order kinetics to calculate t1/2 and Clin t(mic): […]
(§23) Equation of first order kinetics: […]

[2] = Metabolic stability assay, rat liver microsomes; details: in % (unit assumed)
Experimental: as §1, §2, §3, §4, §5, §6, §7, §8, §9, §10, §11, §12, §13, §14, §15, §16, §17, §18, §19, §20, §21, §22, §23

[3] = Metabolic stability assay, dog liver microsomes; details: in % (unit assumed)
Experimental: as §1, §2, §3, §4, §5, §6, §7, §8, §9, §10, §11, §12, §13, §14, §15, §16, §17, §18, §19, §20, §21, §22, §23

[4] = Metabolic stability assay, monkey liver microsomes; details: in % (unit assumed)
Experimental: as §1, §2, §3, §4, §5, §6, §7, §8, §9, §10, §11, §12, §13, §14, §15, §16, §17, §18, §19, §20, §21, §22, §23

[5] = Metabolic stability assay, human liver microsomes; details: in % (unit assumed)
Experimental: as §1, §2, §3, §4, §5, §6, §7, §8, §9, §10, §11, §12, §13, §14, §15, §16, §17, §18, §19, §20, §21, §22, §23

[6] = test system: TMD8 large B cell lymphoma; assay: TMD8 large B cell lymphoma model tumor growth; type: in vivo, mouse; details: Fig.3c TMD-8, 25mg/kg p.o. QD x 21D, n=6, individual animals
Description: (§24) PO, oral administration; QD, once daily; BID, twice daily. b–d Tumor growth curves for A2780 ovarian tumor (n = 5) (b), TMD8 large B cell lymphoma (n = 6) (c), and B16F10 melanoma (n = 5) (d) bearing mice treated with the indicated compounds once daily for 11-21 days. e, f Tumor growth curves for A375 melanoma (n = 6) (e), and patient-derived xenograft (PDX) of melanoma (n = 5) (f) bearing mice treated with the indicated compounds once daily (5 days on, 2 days off) for 21 days. For d–f, NHWD-870 used is NHWD-870-HCl synthesized using Suzuki coupling route. Data are presented as mean ± SEM in (a, b, d, f) and mean + SEM in (c, e). p values were calculated using two-tailed, unpaired t tests. *p < 0.05; **p < 0.01; ***p < 0.001. Source data are provided as a Source Data file.
(§25) 4–6 weeks old female BALB/c nude mice were used for most experiments, with the exception of 6–8 weeks old female C57BL/6 mice were used for B16F10 experiments, and 6–8 weeks old male BALB/c nude mice and SD rats were used for pharmacokinetic experiments. All animals were purchased from Shanghai SIPPR-Bk Lab Animal Co., Ltd. All animals were housed under a regimen of 12 h light/12 h dark cycles and specific pathogen-free conditions. 5×10^6 NCI-H526, ES-2, MDA-MB231, A2780, A375, B16F10, and TMD-8 cells (0.1 ml) were injected subcutaneously into female nude mice. The melanoma patient-derived xenograft model was derived from a human melanoma sample (BRAF, NARS and NF1 wild type, and p53 mutant) removed from a patient in Xiangya Hospital. Surgically removed tumor fragments were implanted subcutaneously into female NSG mice. When the tumors grew to ~1000 mm^3, they were harvested and cryopreserved or immediately re-implanted for expansion or experiments. Mouse body weight and tumor sizes were measured every 3 days. Once the tumors grew to 150–200 mm^3, mice were treated with the compounds as described in the Figures. 1 × 10^6 A2780 cells (1 ml) were injected into the abdominal cavity of nude mice. Ascitic volume and tumor weight were measured by an electronic balance. All the procedures were evaluated and approved by the Institutional Animal Care and Use Committee of Central South University and Yale University.

B16F10 mouse melanoma = B16F10 mouse melanoma syngeneic model tumor growth; type: in vivo, C57BL/6 mice; set-up: Tumor volume: unit not given here; details: Fig.3d, individual animals
Description: as §24, §25

O=C(O)Cc1ccccc1Nc1c(Cl)cccc1Cl [Diclofenac]
Remaining in mouse liver microsomes (Sup Fig.6a) ([1]; time 0): 100
Remaining in mouse liver microsomes (Sup Fig.6a) ([1]; time 5): 92.277
Remaining in mouse liver microsomes (Sup Fig.6a) ([1]; time 10): 89.557
Remaining in mouse liver microsomes (Sup Fig.6a) ([1]; time 20): 85.421
Remaining in mouse liver microsomes (Sup Fig.6a) ([1]; time 30): 78.177
Remaining in mouse liver microsomes (Sup Fig.6a) ([1]; time 60): 51.477
Remaining in rat liver microsomes (Sup Fig.6b) ([2]; time 0): 100
Remaining in rat liver microsomes (Sup Fig.6b) ([2]; time 5): 75.339
Remaining in rat liver microsomes (Sup Fig.6b) ([2]; time 10): 59.077
Remaining in rat liver microsomes (Sup Fig.6b) ([2]; time 20): 35.911
Remaining in rat liver microsomes (Sup Fig.6b) ([2]; time 30): 22.814
Remaining in rat liver microsomes (Sup Fig.6b) ([2]; time 60): 4.586
Remaining in Dog liver microsomes (Sup Fig.6c) ([3]; time 0): 100
Remaining in Dog liver microsomes (Sup Fig.6c) ([3]; time 5): 94.367
Remaining in Dog liver microsomes (Sup Fig.6c) ([3]; time 10): 98.224
Remaining in Dog liver microsomes (Sup Fig.6c) ([3]; time 20): 89.21
Remaining in Dog liver microsomes (Sup Fig.6c) ([3]; time 30): 87.634
Remaining in Dog liver microsomes (Sup Fig.6c) ([3]; time 60): 78.588
Remaining in Monkey liver microsomes (Sup Fig.6d) ([4]; time 0): 100
Remaining in Monkey liver microsomes (Sup Fig.6d) ([4]; time 5): 88.217
Remaining in Monkey liver microsomes (Sup Fig.6d) ([4]; time 10): 88.366
Remaining in Monkey liver microsomes (Sup Fig.6d) ([4]; time 20): 94.477
Remaining in Monkey liver microsomes (Sup Fig.6d) ([4]; time 30): 85.252
Remaining in Monkey liver microsomes (Sup Fig.6d) ([4]; time 60): 84.048
Remaining in Human liver microsomes (Sup Fig.6e) ([5]; time 0): 100
Remaining in Human liver microsomes (Sup Fig.6e) ([5]; time 5): 68.568
Remaining in Human liver microsomes (Sup Fig.6e) ([5]; time 10): 50.449
Remaining in Human liver microsomes (Sup Fig.6e) ([5]; time 20): 28.02
Remaining in Human liver microsomes (Sup Fig.6e) ([5]; time 30): 16.826
Remaining in Human liver microsomes (Sup Fig.6e) ([5]; time 60): 2.933

C=CC(=O)N1CCC[C@@H](n2nc(-c3ccc(Oc4ccccc4)cc3)c3c(N)ncnc32)C1 [Ibrutinib, reference compound]
Tumor volume ([6]; day 0): 154.352 mm^3 and 126.234 mm^3 and 92.4707 mm^3 and 208.237 mm^3 and 189.187 mm^3 and 112.682 mm^3
Tumor volume ([6]; day 3): 237.85 mm^3 and 276.464 mm^3 and 91.3933 mm^3 and 282.765 mm^3 and 163.343 mm^3 and 107.8 mm^3
Tumor volume ([6]; day 7): 352.832 mm^3 and 423.619 mm^3 and 205.187 mm^3 and 365.185 mm^3 and 345.367 mm^3 and 135.53 mm^3
Tumor volume ([6]; day 10): 473.704 mm^3 and 751.605 mm^3 and 389.433 mm^3 and 510.345 mm^3 and 486.864 mm^3 and 230.549 mm^3
Tumor volume ([6]; day 14): 835.097 mm^3 and 1026.1 mm^3 and 435.155 mm^3 and 707.68 mm^3 and 720.134 mm^3 and 302.373 mm^3
Tumor volume ([6]; day 17): 1017.47 mm^3 and 1815.12 mm^3 and 476.012 mm^3 and 822.388 mm^3 and 594.62 mm^3 and 293.12 mm^3
Tumor volume ([6]; day 21): 1538.44 mm^3 and 2230.02 mm^3 and 727.616 mm^3 and 1254.35 mm^3 and 985.284 mm^3 and 887.285 mm^3

Cc1nnn(C)c1-c1cnc2c3c4cnn(C)c4ccc3n([C@H](c3ccccc3)C3CCOCC3)c2c1 [compound 870]
Tumor volume (B16F10 mouse melanoma; 1mg/kg, day 0): 0
Tumor volume (B16F10 mouse melanoma; 1mg/kg, day 3): 56 and 75 and 36 and 4 and 137
Tumor volume (B16F10 mouse melanoma; 1mg/kg, day 7): 88 and 81 and 51 and 56 and 405
Tumor volume (B16F10 mouse melanoma; 1mg/kg, day 11): 198 and 63 and 191 and 162 and 405
Tumor volume (B16F10 mouse melanoma; 2mg/kg, day 0): 0
Tumor volume (B16F10 mouse melanoma; 2mg/kg, day 3): 14 and 36 and 172 and 3.5 and 2.5
Tumor volume (B16F10 mouse melanoma; 2mg/kg, day 7): 40 and 75 and 288 and 2.1 and 2.5
Tumor volume (B16F10 mouse melanoma; 2mg/kg, day 11): 0 and 237 and 500 and 2.5 and 1.6
